In ChEMBL document CHEMBL3885881, “DrugMatrix”:

Species: Rattus norvegicus
Experiment: DrugMatrix - Regimen: Daily Repeat
Assay type: toxicity, organism-based, Sprague-Dawley
Set-up: regimen Daily Repeat, gender Male, age 6-8 weeks
Settings: in vivo, sc, 120 h, route subcutaneous, time 5 day, vehicle 100 % SALINE; for ALANINE AMINOTRANSFERASE / ALBUMIN / ALKALINE PHOSPHATASE / ASPARTATE AMINOTRANSFERASE / BLOOD UREA NITROGEN / CARBON DIOXIDE / CHLORIDE / CHOLESTEROL / CREATINE PHOSPHOKINASE / CREATININE / GLUCOSE / LACTATE DEHYDROGENASE / LIPASE / PHOSPHORUS / POTASSIUM / SODIUM / TOTAL BILIRUBIN / TOTAL PROTEIN / URIC ACID: tissue Plasma
[1] = 50 mg/kg, tissue Blood, dose level High

CC(N)Cc1c[nH]c2ccc(OCc3cccs3)cc12 (configuration not stated) [BW-723C86]
ALANINE AMINOTRANSFERASE (10 mg/kg, dose level Low): 53.33 u/L | ALBUMIN (10 mg/kg, dose level Low): 4.03 G/DL | ALKALINE PHOSPHATASE (10 mg/kg, dose level Low): 406.67 u/L | ASPARTATE AMINOTRANSFERASE (10 mg/kg, dose level Low): 85.67 u/L | BLOOD UREA NITROGEN (10 mg/kg, dose level Low): 14.67 mg/dL | CARBON DIOXIDE (10 mg/kg, dose level Low): 33.33 mmol/L | CHLORIDE (10 mg/kg, dose level Low): 103.33 MEQ/L | CHOLESTEROL (10 mg/kg, dose level Low): 90.33 mg/dL | CREATINE PHOSPHOKINASE (10 mg/kg, dose level Low): 200.33 u/L | CREATININE (10 mg/kg, dose level Low): 0.18 mg/dL | GLUCOSE (10 mg/kg, dose level Low): 150.33 mg/dL | LACTATE DEHYDROGENASE (10 mg/kg, dose level Low): 93 u/L | LIPASE (10 mg/kg, dose level Low): 8 u/L | PHOSPHORUS (10 mg/kg, dose level Low): 13.1 mg/dL | POTASSIUM (10 mg/kg, dose level Low): 7.02 MEQ/L | SODIUM (10 mg/kg, dose level Low): 148.43 MEQ/L | TOTAL BILIRUBIN (10 mg/kg, dose level Low): 0.1 mg/dL | TOTAL PROTEIN (10 mg/kg, dose level Low): 6.43 G/DL | URIC ACID (10 mg/kg, dose level Low): 1.67 mg/dL | ABSOLUTE BASOPHIL [1]: 0 CELLS/uL | ABSOLUTE EOSINOPHIL [1]: 0 CELLS/uL | ABSOLUTE LYMPHOCYTE [1]: 7706.33 CELLS/uL | ABSOLUTE MONOCYTE [1]: 71.33 CELLS/uL | ABSOLUTE SEGMENTED NEUTROPHIL [1]: 3055.67 CELLS/uL | BASOPHIL [1]: 0% | EOSINOPHIL [1]: 0% | ERYTHROCYTE COUNT [1]: 5.21 x10E6/uL | HEMATOCRIT [1]: 30.4% | HEMOGLOBIN [1]: 11.63 G/DL | LEUKOCYTE COUNT [1]: 10.83 x10E3/uL | LYMPHOCYTE [1]: 71% | MEAN CORPUSCULAR HEMOGLOBIN [1]: 22.4 pg | MEAN CORPUSCULAR HEMOGLOBIN CONCENTRATION [1]: 38.3 G/DL | MEAN CORPUSCULAR VOLUME [1]: 58.4 fL | MONOCYTE [1]: 0.67% | NEUTROPHIL [1]: 28.33% | NUCLEATED RED BLOOD CELLS [1]: 0.33 /100WBC | PLATELET COUNT [1]: 1382.67 x10E3/uL | ALANINE AMINOTRANSFERASE (50 mg/kg, dose level High): 47.33 u/L | ALBUMIN (50 mg/kg, dose level High): 3.33 G/DL | ALKALINE PHOSPHATASE (50 mg/kg, dose level High): 343 u/L | ASPARTATE AMINOTRANSFERASE (50 mg/kg, dose level High): 83.67 u/L | BLOOD UREA NITROGEN (50 mg/kg, dose level High): 15 mg/dL | CARBON DIOXIDE (50 mg/kg, dose level High): 28 mmol/L | CHLORIDE (50 mg/kg, dose level High): 104.33 MEQ/L | CHOLESTEROL (50 mg/kg, dose level High): 78.33 mg/dL | CREATINE PHOSPHOKINASE (50 mg/kg, dose level High): 168.33 u/L | CREATININE (50 mg/kg, dose level High): 0.18 mg/dL | GLUCOSE (50 mg/kg, dose level High): 174 mg/dL | LACTATE DEHYDROGENASE (50 mg/kg, dose level High): 96.33 u/L | LIPASE (50 mg/kg, dose level High): 8.33 u/L | PHOSPHORUS (50 mg/kg, dose level High): 13.63 mg/dL | POTASSIUM (50 mg/kg, dose level High): 6.41 MEQ/L | SODIUM (50 mg/kg, dose level High): 147.13 MEQ/L | TOTAL BILIRUBIN (50 mg/kg, dose level High): 0.1 mg/dL | TOTAL PROTEIN (50 mg/kg, dose level High): 5.87 G/DL | URIC ACID (50 mg/kg, dose level High): 2.1 mg/dL
